For data set [1] the following is noted: 100 kPa, Liquid, Vibrating tube method.
A short description of data set [2]: refractive index (Na D-line) (dimensionless). The following applies: 100 kPa, Liquid, Standard Abbe refractometry.
A short description of data set [3]: xn = mol fraction of the nth substance listed. The following applies: 100 kPa, Liquid, Vibrating tube method, x2 = 0.
The nature of data set [4]: refractive index (Na D-line) (dimensionless); xn = mol fraction of the nth substance listed. The following applies: 100 kPa, Liquid, Standard Abbe refractometry, x2 = 0.

Drawing on the NIST ThermoML archive (doi:10.1021/acs.jced.8b00854), this text covers mass density and refractive index for eight molecules.

Where “and” joins values, the source holds several entries; their conditions need not be identical. Equal entries are not always repeated. Numbers after ± are expanded uncertainties.

As a reminder, the mass density is mass per unit of volume. The term refractive index denotes a measure of how strongly the sample bends light. Consider `O` [water], for which the mass density is 988.04 ± 2 kg/m3 in data set [1] (323.15 K); 981.56 ± 2 kg/m3 and 988.04 ± 2 kg/m3 in data set [1] (333.15 K); 972.75 ± 2 kg/m3 in data set [1] (343.15 K). The refractive index is on record as 1.3335 ± 0.0016 in data set [2] (293.15 K); 1.3315 ± 0.0016 in data set [2] (303.15 K); 1.3305 ± 0.0016 in data set [2] (313.15 K); 1.329 ± 0.0016 in data set [2] (323.15 K); 1.3275 ± 0.0016 in data set [2] (333.15 K); 1.326 ± 0.0016 in data set [2] (343.15 K).

For `O` [water] + CCCCCCCCOS(=O)(=O)[O-].CCCCn1cc[n+](C)c1, the values for the mass density in data set [3] (323.15 K), in data set [3] (333.15 K) and in data set [3] (343.15 K) were 988.04 ± 2 kg/m3, 981.56 ± 2 kg/m3 and 972.75 ± 2 kg/m3, respectively. Besides, the refractive index turned out to be 1.3335 ± 0.0016 in data set [4] (293.15 K); 1.3315 ± 0.0016 in data set [4] (303.15 K); 1.3305 ± 0.0016 in data set [4] (313.15 K); 1.329 ± 0.0016 in data set [4] (323.15 K); 1.3275 ± 0.0016 in data set [4] (333.15 K); 1.326 ± 0.0016 in data set [4] (343.15 K).

Take `O` [water] + CCCCCCCC[n+]1ccn(C)c1.F[B-](F)(F)F: the results for the mass density in data set [3] (323.15 K), in data set [3] (333.15 K) and in data set [3] (343.15 K) were 988.04 ± 2 kg/m3, 988.04 ± 2 kg/m3 and 972.75 ± 2 kg/m3, respectively. For the same molecule, the refractive index in data set [4] (293.15 K) was found to be 1.3335 ± 0.0016; in data set [4] (303.15 K), 1.3315 ± 0.0016; in data set [4] (313.15 K), 1.3305 ± 0.0016; in data set [4] (323.15 K), 1.329 ± 0.0016; in data set [4] (333.15 K), 1.3275 ± 0.0016; in data set [4] (343.15 K), 1.326 ± 0.0016.

As to `O` [water] + CCCCCCn1cc[n+](C)c1.F[B-](F)(F)F, the values for the mass density in data set [3] (323.15 K), in data set [3] (333.15 K) and in data set [3] (343.15 K) were 988.04 ± 2 kg/m3, 981.56 ± 2 kg/m3 and 972.75 ± 2 kg/m3, respectively. Also, the refractive index in data set [4] (293.15 K) is recorded as 1.3335 ± 0.0016; in data set [4] (303.15 K), 1.3315 ± 0.0016; in data set [4] (313.15 K), 1.3305 ± 0.0016; in data set [4] (323.15 K), 1.329 ± 0.0016; in data set [4] (333.15 K) it was 1.3275 ± 0.0016; in data set [4] (343.15 K), 1.326 ± 0.0016.

As to `O` [water] + CCCCn1cc[n+](C)c1.F[B-](F)(F)F, the results for the mass density in data set [3] (323.15 K), in data set [3] (333.15 K) and in data set [3] (343.15 K) were 988.04 ± 2 kg/m3, 981.56 ± 2 kg/m3 and 972.75 ± 2 kg/m3, respectively. Further, the refractive index in data set [4] (293.15 K) was found to be 1.3335 ± 0.0016; in data set [4] (303.15 K), 1.3315 ± 0.0016; in data set [4] (313.15 K), 1.3305 ± 0.0016; in data set [4] (323.15 K), 1.329 ± 0.0016; in data set [4] (333.15 K), 1.3275 ± 0.0016; in data set [4] (343.15 K), 1.326 ± 0.0016.

In the case of `O` [water] + CCCCn1cc[n+](C)c1.O=S(=O)([O-])C(F)(F)F, the figures for the mass density in data set [3] (323.15 K), in data set [3] (333.15 K) and in data set [3] (343.15 K) were 988.04 ± 2 kg/m3, 981.56 ± 2 kg/m3 and 972.75 ± 2 kg/m3, respectively. Also, the refractive index is on record as 1.3335 ± 0.0016 in data set [4] (293.15 K); 1.3315 ± 0.0016 in data set [4] (303.15 K); 1.3305 ± 0.0016 in data set [4] (313.15 K); 1.329 ± 0.0016 in data set [4] (323.15 K); 1.3275 ± 0.0016 in data set [4] (333.15 K); 1.326 ± 0.0016 in data set [4] (343.15 K).

For the molecule `O` [water] + CCn1cc[n+](C)c1.F[B-](F)(F)F, the values for the mass density in data set [3] (323.15 K), in data set [3] (333.15 K) and in data set [3] (343.15 K) were 988.04 ± 2 kg/m3, 981.56 ± 2 kg/m3 and 972.75 ± 2 kg/m3, respectively. The refractive index in data set [4] (293.15 K) is 1.3335 ± 0.0016; in data set [4] (303.15 K) it was 1.3315 ± 0.0016; in data set [4] (313.15 K) it was 1.3305 ± 0.0016; in data set [4] (323.15 K) it was 1.329 ± 0.0016; in data set [4] (333.15 K), 1.3275 ± 0.0016; in data set [4] (343.15 K), 1.326 ± 0.0016.

As to `O` [water] + CCn1cc[n+](C)c1.O=S(=O)([O-])C(F)(F)F, the figures for the mass density in data set [3] (323.15 K), in data set [3] (333.15 K) and in data set [3] (343.15 K) were 988.04 ± 2 kg/m3, 981.56 ± 2 kg/m3 and 972.75 ± 2 kg/m3, respectively. Besides, the refractive index in data set [4] (293.15 K) amounted to 1.3335 ± 0.0016; in data set [4] (303.15 K) it was 1.3315 ± 0.0016; in data set [4] (313.15 K), 1.3305 ± 0.0016; in data set [4] (323.15 K) it was 1.329 ± 0.0016; in data set [4] (333.15 K) it was 1.3275 ± 0.0016; in data set [4] (343.15 K), 1.326 ± 0.0016.
